Source: US7425556B2 (priority 2005, dated 2008)
pEC50, pKi: −log10 of the molar value.

Columns and labels:
MT1 Receptor = MT1 Receptor (Homo sapiens, UniProt P48039); assay: biochemical; assay type: binding; conditions: for pKi: read-out: MT1 Receptor Binding Ki
[1] = target: human Melatonin receptor 1 (MT1) (Homo sapiens, UniProt P48039); assay: biochemical; conditions: for MT1 Receptor GTPgS Emax: efficacy, 100% effect = 3 nM 2-Iodomelatonin, 0% = vehicle; for pEC50: hMT1/HEK293F membranes, agonist potency, read-out: MT1 Receptor GTPgS EC50; for Emax: read-out: MT1 Receptor GTPgS Emax
human Melatonin receptor 1 (MT1), sequence (P48039 whole entry): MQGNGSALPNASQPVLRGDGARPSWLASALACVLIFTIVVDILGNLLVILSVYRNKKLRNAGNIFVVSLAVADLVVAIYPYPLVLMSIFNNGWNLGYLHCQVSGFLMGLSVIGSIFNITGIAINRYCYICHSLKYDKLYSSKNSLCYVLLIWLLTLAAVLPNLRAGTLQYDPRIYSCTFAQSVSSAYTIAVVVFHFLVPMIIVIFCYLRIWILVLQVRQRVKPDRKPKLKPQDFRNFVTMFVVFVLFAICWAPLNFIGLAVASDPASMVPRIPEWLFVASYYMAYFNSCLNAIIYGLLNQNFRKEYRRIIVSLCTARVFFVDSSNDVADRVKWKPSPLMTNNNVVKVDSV
Procedure: Method II MT1 GTPγ^35S-SPA Assay Test Validation Standards
Test compounds were synthesized in house. […] 2 μl of diluted compounds were transferred to Optic-assay-plates.
(Freshly add protease inhibitor cocktail tables from Roche). […] The protein concentration of the membrane was determined. The membranes were aliquoted and stored at −80° C.
• MAX response (100% effect) was determined as the effect of 3 nM of 2-lodomelatonin. • MIN response (0% effect) was determined as the effect of vehicle control. Description of Experimental Procedure
The final concentration of GTPγ^35S was 200 pM.

[2] = target: T1, GABAA2 receptors (α2, β3, γ2 receptor subunits) (Homo sapiens, UniProt P18507+P47869); assay: biochemical; conditions: [3H]-Flunitrazepam ~2 nM, α2β3γ2 Sf9 membranes, 1 hr at 4° C.; read-out: GABAA2 Binding Ki
T1 construct: host or cells: Sf9 cells (membranes)
T1 sequence (P47869 29-451): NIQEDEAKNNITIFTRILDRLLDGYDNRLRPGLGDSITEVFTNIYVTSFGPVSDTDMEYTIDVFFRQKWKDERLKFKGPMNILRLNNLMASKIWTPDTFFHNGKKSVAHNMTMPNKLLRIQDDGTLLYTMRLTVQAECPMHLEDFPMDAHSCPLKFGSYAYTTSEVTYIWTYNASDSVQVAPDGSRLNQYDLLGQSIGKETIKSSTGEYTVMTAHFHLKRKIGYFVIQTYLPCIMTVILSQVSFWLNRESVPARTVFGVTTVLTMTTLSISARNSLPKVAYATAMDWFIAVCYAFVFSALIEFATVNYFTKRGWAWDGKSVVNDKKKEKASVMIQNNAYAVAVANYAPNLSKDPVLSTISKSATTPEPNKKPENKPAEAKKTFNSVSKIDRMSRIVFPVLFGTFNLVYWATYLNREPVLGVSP
T1 sequence (P28472 26-473 partner): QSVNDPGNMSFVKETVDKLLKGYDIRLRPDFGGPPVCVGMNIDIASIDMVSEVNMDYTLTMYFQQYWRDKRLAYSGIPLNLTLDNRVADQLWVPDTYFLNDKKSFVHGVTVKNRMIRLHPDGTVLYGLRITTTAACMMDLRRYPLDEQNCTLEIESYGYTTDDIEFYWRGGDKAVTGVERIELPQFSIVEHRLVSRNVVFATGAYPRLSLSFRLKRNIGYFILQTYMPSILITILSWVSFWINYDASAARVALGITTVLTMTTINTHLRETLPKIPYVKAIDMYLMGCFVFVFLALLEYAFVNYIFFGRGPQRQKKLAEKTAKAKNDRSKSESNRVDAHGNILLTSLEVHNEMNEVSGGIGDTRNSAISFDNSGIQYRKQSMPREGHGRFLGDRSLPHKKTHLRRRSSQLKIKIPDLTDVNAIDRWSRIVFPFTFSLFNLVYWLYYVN
T1 sequence (P18507 40-475): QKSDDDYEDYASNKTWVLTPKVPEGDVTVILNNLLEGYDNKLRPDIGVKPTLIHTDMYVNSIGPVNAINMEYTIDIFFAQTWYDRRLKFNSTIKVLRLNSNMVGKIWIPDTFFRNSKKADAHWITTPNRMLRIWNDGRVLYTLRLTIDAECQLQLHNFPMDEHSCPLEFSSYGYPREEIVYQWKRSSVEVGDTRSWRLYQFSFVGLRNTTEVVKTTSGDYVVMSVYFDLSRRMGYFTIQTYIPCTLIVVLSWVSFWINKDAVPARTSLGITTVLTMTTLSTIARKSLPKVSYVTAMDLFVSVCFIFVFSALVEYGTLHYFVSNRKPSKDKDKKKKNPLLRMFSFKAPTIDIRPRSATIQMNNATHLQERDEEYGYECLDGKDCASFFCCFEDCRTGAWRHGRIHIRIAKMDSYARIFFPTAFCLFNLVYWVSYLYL

[3] = target: T2, GABAA1 (human α1β2γ2 GABAA receptor) (Homo sapiens, UniProt P14867+P18507); assay: Two-electrode voltage-clamp in Xenopus oocytes, potentiation of GABA EC10 current, GABAA1; assay type: cell-based; conditions: percentage potentiation of GABA EC10 current divided by that of diazepam
T2 construct: expressed in transfected cells; host or cells: Xenopus laevis oocytes injected with capped cRNA
T2 sequence (P14867 28-456): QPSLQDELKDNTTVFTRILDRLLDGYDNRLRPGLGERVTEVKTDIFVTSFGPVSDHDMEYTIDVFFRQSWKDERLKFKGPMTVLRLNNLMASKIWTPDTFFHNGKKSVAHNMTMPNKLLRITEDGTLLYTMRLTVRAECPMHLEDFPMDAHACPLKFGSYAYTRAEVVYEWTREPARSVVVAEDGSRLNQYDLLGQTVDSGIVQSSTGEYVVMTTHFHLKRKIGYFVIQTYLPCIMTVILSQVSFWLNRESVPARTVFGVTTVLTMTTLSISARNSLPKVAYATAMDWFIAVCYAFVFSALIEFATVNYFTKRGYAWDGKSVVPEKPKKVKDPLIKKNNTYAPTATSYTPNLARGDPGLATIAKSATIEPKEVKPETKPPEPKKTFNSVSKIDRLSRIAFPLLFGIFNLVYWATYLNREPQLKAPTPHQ
T2 sequence (P47870 25-512 partner limits assumed): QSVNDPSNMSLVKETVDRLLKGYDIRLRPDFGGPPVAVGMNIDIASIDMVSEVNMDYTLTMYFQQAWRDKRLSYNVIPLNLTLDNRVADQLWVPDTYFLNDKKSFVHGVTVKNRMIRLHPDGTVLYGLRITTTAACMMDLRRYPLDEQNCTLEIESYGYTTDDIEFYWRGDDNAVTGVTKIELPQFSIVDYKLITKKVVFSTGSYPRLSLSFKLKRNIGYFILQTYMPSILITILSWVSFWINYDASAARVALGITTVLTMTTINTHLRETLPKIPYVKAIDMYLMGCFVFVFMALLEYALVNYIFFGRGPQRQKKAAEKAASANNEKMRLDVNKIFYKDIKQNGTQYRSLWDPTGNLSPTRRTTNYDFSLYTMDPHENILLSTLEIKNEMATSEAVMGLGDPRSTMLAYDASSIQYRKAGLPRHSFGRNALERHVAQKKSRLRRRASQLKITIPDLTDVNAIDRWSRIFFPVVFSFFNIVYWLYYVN
T2 sequence (P18507 40-475): as the sequence (P18507 40-475) above

[4] = target: T3, GABAA2 (human α2β3γ2 GABAA receptor) (Homo sapiens, UniProt P18507+P47869); assay: Two-electrode voltage-clamp in Xenopus oocytes, potentiation of GABA EC10 current, GABAA2; assay type: cell-based; conditions: percentage potentiation of GABA EC10 current divided by that of diazepam
T3 construct: expressed in transfected cells; host or cells: Xenopus laevis oocytes injected with capped cRNA
T3 sequence (P47869 29-451): as the sequence (P47869 29-451) above
T3 sequence (P28472 26-473 partner): as the sequence (P28472 26-473 partner) above
T3 sequence (P18507 40-475): as the sequence (P18507 40-475) above

MT1 Receptor, sequence (P48039 whole entry): as the sequence (P48039 whole entry) above

| SMILES | Emax [1] | pKi [2] | Relative Potentiation for GABAA1 [3] | Relative Potentiation for GABAA2 [4] | other results |
| --- | --- | --- | --- | --- | --- |
| CCCNC(=O)c1nnc2c(-c3cc(OC)ccc3OC)cccc2c1N [drawing 421] |  |  |  |  | inhibition at 1 µM (MT1 Receptor; at 1 μM, read-out: MT1 Receptor Binding % Inhibition at 1 μM): 91%; pKi (MT1 Receptor): 7.44; MT1 Receptor GTPgS Emax [1]: 61; pEC50 [1]: 7.57 |
| CCCNC(=O)c1nnc2c(-c3cc(C)ccc3OC)cccc2c1N | 61% |  |  |  |  |
| CCCNC(=O)c1nnc2c(-c3cc(OC)ccc3OC)cccc2c1N [drawing 417] |  |  |  |  | MT1 Receptor Binding % Inhibition at 1 μM (MT1 Receptor; at 1 μM): 86%; pKi (MT1 Receptor): 7.22; MT1 Receptor GTPgS Emax [1]: 100; pEC50 [1]: 7.43 |
| CCCNC(=O)c1nnc2c(-c3cc(OC)ccc3OC)c(F)ccc2c1N | 64% |  |  |  | pKi (MT1 Receptor): 7.51; pEC50 [1]: 7.63 |
| CCCNC(=O)c1nnc2c(-c3cnccc3OC)cccc2c1N | 64% |  |  |  |  |
| CCCNC(=O)c1nnc2c(-c3cnc(OC)nc3OC)cccc2c1N | 70% |  |  |  |  |
| CCCNC(=O)c1nnc2c(-c3ccc(F)c(F)c3)cccc2c1N |  | 7.70 | −0.14 | 0.12 |  |
| CCCNC(=O)c1nnc2c(-c3cccc(S(C)(=O)=O)c3)cccc2c1N |  | 7.98 | 0.34 | 0.26 |  |
| CCCNC(=O)c1nnc2c(-c3cc(Cl)ccc3Cl)cccc2c1N |  | 9.15 | 0.12 | 0.21 |  |
| CCCNC(=O)c1nnc2c(-c3cccc(C(=O)N4CCC4)c3)cccc2c1N |  | 8.46 | 0.19 | −0.0075 |  |
| CCCNC(=O)c1nnc2c(-c3cnc(OC)c(F)c3)cccc2c1N |  | 7.66 | −0.012 | 0.14 |  |
| CCCNC(=O)c1nnc2c(-c3ccc(OC)cc3)cccc2c1N |  | 7.81 | −0.11 | 0.06 |  |
